This note sets out measurements from US10041047B2, “Compositions and methods for epithelial stem cell expansion and culture” (The Brigham and Women's Hospital, Inc., priority 2013, dated 2018).

Common to all, as to assay type: cell-based, mouse
The subject of experiment [1] is Lgr5+ stem cells in small intestinal crypts. Briefly: Small intestinal crypt culture from Lgr5-GFP mice in Matrigel: cell proliferation and Lgr5-GFP expression. How it is done:
Crypts and single Lgr5-GFP cells were isolated as previously described (Sato et al., 2009). Briefly, the proximal half of the small intestine was harvested, opened longitudinally, and washed with cold PBS to remove luminal content. The tissue was then cut into 2-4 mm pieces with scissors and further washed 5-10 times with cold PBS by pipetting up and down using a 10-ml pipette. Tissue fragments were incubated with 2 mM EDTA in PBS for 30 min on ice. After removal of EDTA, tissue fragments were washed with PBS to release crypts. Supernatant fractions enriched in crypts were collected, passed through a 70 μm cell strainer and centrifuged at 300 g for 5 minutes. The cell pellet was re-suspended with cell culture media without growth factors and centrifuged at 150 g to remove single cells. Crypts were then cultured or used for single cell isolation. To obtain single cells, crypts were incubated in culture medium for 45 minutes at 37° C. and triturated with a glass pipette. Dissociated cells were passed through 20 μm cell strainer, negative stained with propidium iodide and single viable GFP-high cells were sorted by flow cytometry (FACS Aria, BD) as previously described (Sato et al., 2009). Small intestinal crypts isolated from Lgr5-EGFP-ires-CreERT2 mice were embedded in Matrigel and cultured under conventional culture conditions in the presence of EGF, Noggin and R-spondin 1 (collectively referred to as ENR) leading to organoids with crypts and villus-like domains and GFP^+ cells at the crypt tips, consistent with previous reports (Sato et al., 2009). Isolated crypts or single cells were cultured as previously described (Sato et al., 2009) with minimal modification. Briefly, crypts or single cells were entrapped in Matrigel and plated at the center of wells in a 24-well plate. After polymerization of Matrigel (growth factor reduced; BD Bioscience), 500 μl of culture medium (Advanced DMEM/F12 (Life Technologies)) was added containing growth factors including EGF (50 ng/ml, Life Technologies), Noggin (100 ng/ml, Peprotech) and R-spondin 1 (500 ng/ml, R&D) and small molecules including CHIR99021 (3 μM, Stemgent) and Valproic Acid (1 mM, Sigma-Aldrich). For comparison of different culture conditions, small molecules or growth factors were added to freshly isolated crypts immediately after plating in Matrigel to test the ability to minimize potential differentiation of the ISC within the crypts and thus sustain crypt cultures. Cell culture media was changed every other day. For single cell culture, cells were embedded in Matrigel containing Jagged-1 peptide (1 μM; AnaSpec) and Y-27632 (10 μM; Tocris) was added for the first 2 days. Cells were passaged either as cell colonies as previously described (Sato et al., 2009) or as single cells. For single cell passage, cell culture medium was removed and Accutase (Life Technologies) was added. After incubation at 37° C. for 10-20 minutes, cell colonies were dissociated into single cells by pipetting. Cells were then washed, embedded in fresh Matrigel and plated into 24-well plates. Cells cultured in the CV condition were passaged every 6 days at a 1:20 split ratio. Approximately half of the cultured crypts contained GFP+ cells, which is consistent with the in vivo GFP expression of Lgr5-GFP mice (FIG. 1).
The growth factors used in the ENR condition provide essential, but not adequate cues to sustain the self-renewal of Lgr5^+ stem cells. To identify factors essential to maintaining the self-renewal status of intestinal stem cells, selected small molecules that modulate signaling pathways of ISCs, such as Wnt, Notch, and BMP, were tested under the ENR condition, using the Lgr5-GFP reporter.
CHIR is a highly-specific GSK3 inhibitor that activates the Wnt/β-catenin signaling pathway (Bain et al., 2007), and has been used to maintain the self-renewal state of embryonic stem cells (Ying et al., 2008). […]

Experiment [2] relates to Lgr5+ stem cells. Briefly: Quantitative real-time PCR of mature intestinal epithelial cell markers and Lgr5, 6 day culture (FIG. 6D). How it is done: FIGS. 6A-6D depict maintenance of Lgr5+ stem cell self-renewal by the combination of CHIR and VPA. Confocal images of Lysozyme (FIG. 6A), Ki67 (FIG. 6B) and EdU (FIG. 6C) staining of organoids cultured under the ENR condition (Upper panels) and colonies cultured in the ENR-CV condition (Lower panels) are shown. For EdU staining, cells were cultured with the thymidine analogue EdU (red) for 1 hour. In FIGS. 6B and 6C, only crypt domains contain Ki67 positive cells or incorporate EdU in the ENR condition (Upper panels) while Ki67 or EdU is present throughout the cell aggregates in the CV condition (Lower panels). FIG. 6D depicts quantitative real-time PCR analysis of relative mRNA expression of markers for mature intestinal epithelial cells cultured for 6 days under conditions as indicated (Intestinal Alkaline phosphatase [Alpi] for enterocytes, Mucin 2 [Muc2] for goblet cells, Chromogranin A [ChgA] for enteroendocrine cells, Lysozyme [Lyz] for Paneth cells, and Lgr5 for intestinal stem cells). ENR-CV(D40) indicates cells that were cultured in the CV condition for 40 days. Scale bars: 50 μm. In FIG. 6D, the series are, from left to right, Alpi, Muc2, ChgA, Lyz, and Lgr5.
As previously reported, cells in the ENR condition grew into organoids with crypt-villus structure containing all intestinal epithelial cell types, confirmed by staining of alkaline phosphatase (Alp) positive enterocytes, Mucin 2 (Muc2) positive goblet cells, Chromogranin A (ChgA) positive enteroendocrine cells, Lysozyme (Lyz) positive Paneth cells and Lgr5-GFP^+ stem cells. Lgr5^+ stem cells only reside at the tips of crypt (FIGS. 6A and 7A). […] In the CV condition, however, GFP^+ stem cells were present throughout the entire colony with minimal presence of Paneth cells (FIG. 6A) and without the presence of other cells types. Compared to ENR culture, Ki67 or EdU positive proliferating cells in the CV condition existed throughout the cell colony (FIGS. 6B and 6C). […] This expression pattern was maintained over multiple passages, and the Lgr5 expression level was maintained (FIG. 6D). […]
A general note: In qPCR the cycle at which signal appears reflects the starting amount.

Experiment [3] concerns Lgr5+ stem cells. In words: Controlled differentiation of Lgr5+ stem cells after CV culture (RT-PCR and staining of differentiation markers). The settings on record: colonies from 6 days CV, then 4 days with ENR plus agents (FIG. 7B).
Where [4] appears, read: crypts cultured 6 days, agent added to ENR condition.
Where [5] appears, read: multiple concentrations (FIG. 9E).

Regarding `Cc1cnc(-c2cnc(NCCNc3ccc(C#N)cn3)nc2-c2ccc(Cl)cc2Cl)[nH]1` [CHIR99021, 6-[[2-[[4-(2,4-Dichlorophenyl)-5-(5-methyl-1H-imidazol-2-yl)-2-pyrimidinyl]amino]ethyl]amino]-3-pyridinecarbonitrile], in experiment [1] (setting [4]), the “GFP expression (percentage and relative GFP intensity of GFP+ cells)” value was “increased the percentage and relative GFP intensity”. The “cell proliferation of crypt cells (organoid size and cell numbers)” value in experiment [1] (crypts cultured 6 days, agent added to ENR condition, compared to ENR) is “promoted the proliferation”. The “need of R-Spondin1 to promote GFP expression” value in experiment [1] (increasing the concentration of CHIR, crypts 6 days) is listed as “eliminated the need of R-Spondin1”. In the experiment on Lgr5+ stem cells [2], the Paneth cell differentiation result is “increased” and the enterocyte differentiation result was “reduces”. In the experiment on Lgr5+ stem cells [3], the ChgA expression entry was “did not significantly influence”.
On to `CCCC(CCC)C(=O)O` [Valproic Acid], for which the “rescue of cell proliferation and GFP expression following Notch inhibition” value in experiment [1] (ENR-C with DAPT 5 μM and VPA 0.25-4 mM, 3 days) is given as “rescued”. Besides, in experiment [1] (setting [4]), the “GFP expression (percentage and relative GFP intensity of GFP+ cells)” value was “significantly increased”. Also, in experiment [1] (setting [5]), the “GFP expression at multiple concentrations” value is given as “maintained GFP expression” and the “cell proliferation at higher concentration” value is reported as “marked proliferation inhibition effect”. Moreover, the secretory differentiation result in the experiment with Lgr5+ stem cells [2] is “decreased”. Also, in the experiment on Lgr5+ stem cells [3], the ChgA expression entry is given as “lower level of expression”, the Lysozyme expression entry was “lower level of expression” and the Muc2 expression entry is “lower level of expression”.
